Results from patent US20130324543A1, “REVERSAL OF HIGH BREAST CANCER RISK IN MAMMALS EXPOSED TO ESTROGENIC CHEMICALS IN UTERO BY ADULT EXPOSURE TO HDAC AND DNMT INHIBITORS” (Georgetown University, priority 2012, published 2013).
Entries after “also recorded” stand apart in the source; their conditions may differ.

Tests used:
DNMT1 [1] = experiment: DNMT1 mRNA expression (qRT-PCR) in mouse mammary glands and tumors; format: in vivo; settings: in utero exposure vs control mice
From the text: Total RNA was extracted using an RNeasy lipid mini kit (Qiagen, CA), according to manufacturer's instructions. One […] of total RNA per sample was used as a template for oligo-dT primed cDNA synthesis with a Supterscript reverse transcriptase, using Taqman Reverse Transcription kit (Applied Biosystems, CA). The cDNA samples served then as templates for quantitative real time PCR analysis with specific primers for the target gene using QuantiTect SYBR green PCR kit (Qiagen Inc., Valencia, Calif.) and an ABI Prism 7900 Sequence Detection System. Each sample was run in triplicate on a 384-well plate, and the qPCR run was repeated twice. The Ct values were averaged from the triplicates for each sample. To normalize the target gene expression the ratio to control RNA was calculated, i.e. the averages of the Ct triplicates from the Dnmt1 gene were divided by the average of the triplicates from the 18S gene. To determine the fold change of the target gene expression the results are presented as 2^ΔCt, where ΔCt=CT^target−Ct^18S.
The primer sequences for m18S rRNA were as previously published by Wang et al. (27).
Mammary tumor latency was compared with the final tumor burden in utero EE2 and GEN exposed mice to control mice, and in utero EE2 and GEN exposed mice to control mice exposed to HDAC+DNMT inhibitors separately; analysis was done using one-way ANOVA. Cumulative tumor burden during 16 weeks of tumor monitoring in the three groups, separately in those mice not given HDAC+DNMT inhibitors and those treated with the epigenetic drugs, was analysed using repeated measures one-way ANOVA. Log rank analysis was performed to compare mammary tumor incidence in the control and in utero EE2 and GEN exposed mice, again separately in those mice not given HDAC+DNMT inhibitors and those treated with the epigenetic drugs. Data for changes in DNMT1 expression among the groups in the mammary glands and tumors were assessed using two-way ANOVA, followed by Fisher LSD test

[2] = Body weight and growth of in utero exposed pups; format: in vivo, C57BL/6 mice; settings: mouse, in vivo
From the text: (§1) Additions to the basic diet were as follows: 1) cornstarch [control]; 2) EE2 0.1 ppm; 3) BPA 0.155 ppm; 4) GEN 500 ppm.

[3] = Immediate adverse effects of dietary exposure in adult non-pregnant littermates of dams; format: in vivo, mice; settings: last day of dietary exposure, data not shown
Procedure: For ethical reasons non-pregnant littermate females were used for blood collection instead of the dams, and the samples were taken on the last day of their dietary exposure. Blood was collected by heart puncture of anesthetized mice prior to euthanasia, and serum was separated by centrifugation (1000×g for 10 min) and stored frozen until hormone measurements.
In addition, possible immediate adverse effects of EE2, BPA and GEN exposure for adult mice were evaluated using the non-pregnant littermates of dams. Their body weights were recorded and the mammary gland morphology examined on the last day of their dietary exposure.

mammary tumors = experiment: MPA/DMBA mammary tumorigenesis in mice exposed in utero to EE2, GEN or BPA (Example 5); format: in vivo, C57BL/6 mice; settings: mouse, in vivo
From the text: as §1

Dnmt1 [4] = experiment: Dnmt mRNA expression (qRT-PCR) in mammary glands of F1-F3 rat offspring; format: in vivo, Sprague-Dawley rats; settings: for levels of Dnmt1 mRNA in mammary gland: PND50
From the text: Total mammary RNA (n=3-6/group) was used as a template for random primed cDNA synthesis (TaqMan MultiScribe Reverse Transcriptase and RT-PCR Reagents, AppliedBiosystems, Roche, N.J., USA). cDNA samples were then used as templates for quantitative RT PCR analysis with previously described specific primers for the target gene, rat Dnmt1 (124) using QuantiTect SYBR green PCR kit (Qiagen Inc., Valencia, Calif.). Each sample was normalized to the reference gene 18S rRNA (27). Two hundred ng of total RNA per sample (n=3-6) was used as a template for random primed cDNA synthesis with a recombinant Moloney murine leukemia virus reverse transcriptase (TaqMan MultiScribe Reverse Transcriptase and RT-PCR Reagents, AppliedBiosystems, Roche, N.J., USA), according to manufacturer's instructions. An RT enzyme-minus control reaction was also included. The cDNA samples were then used as templates for quantitative real time PCR analysis with previously described specific primers for the target gene, rat Dnmt1(29) using QuantiTect SYBR green PCR kit (Qiagen Inc., Valencia, Calif.) and an ABI Prism 7900 Sequence Detection System. Each sample was run in triplicate, and the qPCR run was repeated twice. Absolute gene expression levels were determined using Applied Biosystems' SDS2.3 software and the standard curve method. Concentration of each sample was normalized to the reference gene 18S rRNA (30), and averages of the three runs are shown. Differences in Dnmt1 mRNA expression levels were tested by two-way ANOVA (after log-transformation), followed by Holm-Sidak multicomparison procedure.

[5] = Litter size and pup weight in F1-F3 rat generations; format: in vivo, Sprague-Dawley rats; settings: diet of the F0 dams; any of the three generations
Procedure: Pregnant dams were weighed once a week to monitor changes in weight gain. The birth weight of pups and number of pups per litter were recorded. To avoid litter-effect, pups were crossfostered 1-2 days after dams gave birth. Pups from 2-4 dams were pooled and housed in a litter of 8-10 pups per nursing dam (which had the same dietary/hormonal exposure during pregnancy as the pups' mothers). All pups were weaned on postnatal day 21.

CYP1B1 = CYP1B1 expression (qRT-PCR) in mammary glands of F1-F3 rat offspring; format: in vivo, Sprague Dawley rats
Procedure: Mammary gland tissue obtained from 50-day-old F1-F3 generation offspring (n=5-6 per group per generation) were used. 1 μg of total RNA per sample was used as a template for random primed cDNA synthesis. The cDNA samples were used as templates for qRT-PCR analysis with specific primers for the target gene, rat CYP1B1 using QuantiTect SYBR green PCR kit (Qiagen Inc., Valencia, Calif.) and an ABI Prism 7900 Sequence Detection System. Each sample was run in triplicate. Absolute gene expression levels were determined using Applied Biosystems' SDS2.3 software and the standard curve method. Concentration of each sample was normalized to the reference gene 18S rRNA.

mammary glands = experiment: Cell proliferation (Ki-67 immunohistochemistry) in PND50 mammary glands; format: in vivo, Sprague Dawley rats
Procedure: To determine whether the increase in DNA adduct formation may reflect increased cell proliferation, expression of Ki-67, a marker of cell proliferation, was assessed on PND50 mammary glands using immunohistochemistry. The ki-67 status of each sample was evaluated according to a modified version of the scoring system proposed by Allred et al. The total score for each sample was calculated as the sum of the estimated proportion of positive-staining cells ([…]) plus the estimated intensity of positive-staining cells (0-4).

**Q.** Which “DNMT1 expression in mammary tumors” value (DNMT1 [1]) does the source give for C#C[C@]1(O)CC[C@H]2[C@@H]3CCc4cc(O)ccc4[C@H]3CC[C@@]21C [EE2, ethinyl estradiol] here?
**A.** significantly lower

**Q.** What about the “expression of DNMT1 in mammary glands” value (DNMT1 [1]) of the same molecule?
**A.** an increase in the expression of DNMT1; also recorded: persistent up-regulation

**Q.** What about the “birthweight, or postnatal weight development” value [2] of the same molecule?
**A.** did not alter

**Q.** And the “body weight or mammary epithelial development” value [3]?
**A.** No significant differences

**Q.** What about the “mammary tumorigenesis (onset of tumor growth and cumulative tumor burden)” value (mammary tumors) of the same molecule?
**A.** Enhanced mammary tumorigenesis

**Q.** And the “levels of Dnmt1 mRNA in mammary gland” value (Dnmt1 [4]; F1 generation)?
**A.** increased

**Q.** What about the “levels of Dnmt1 mRNA in mammary gland” value (Dnmt1 [4]; F2 and F3 generation offspring) of the same molecule?
**A.** this increase persisted

**Q.** What about the “DNMT3a or 3b expression in the mammary glands” value (Dnmt1 [4]; in utero exposed rats, not shown) of the same molecule?
**A.** Neither DNMT3a or 3b were altered

**Q.** And the “litter size or pups weight” value [5]?
**A.** did not affect

**Q.** And the “CYP1B1 expression in normal mammary glands” value (CYP1B1; F1-F3 generation offspring)?
**A.** up-regulated

**Q.** What about the “expression levels of CYP1B1” value (CYP1B1; F1 and F2 generations, vs control or HF offspring) of the same molecule?
**A.** significantly higher

**Q.** And the CYP1B1 expression levels (CYP1B1; F3 generation, vs controls)?
**A.** higher than in the controls

**Q.** What about the “cell proliferation by ki-67” value (mammary glands; F1 generation) of the same molecule?
**A.** non-significantly increased

**Q.** And the “cell proliferation by ki-67” value (mammary glands; F2 generation, compared to the controls)?
**A.** significantly lower
